Test results: patent US9180111B2, “Reduction in complement activation and inflammation during tissue injury by carotenoids, carotenoid analogs, or derivatives thereof” (Cardax Pharma, Inc., priority 2005, dated 2015)

What was measured:
[1] = biological target: human serum albumin (HSA) (Homo sapiens, UniProt P02768); assay: Plasma-protein binding studies in vitro
[2] = Determination of aqueous solubility/dispersibility; assay type: physicochemical
Experimental: (§1) 30.13 mg of 3 was added to 1 mL of USP-purified water. The sample was rotated for 2 hours, then centrifuged for 5 minutes. After centrifuging, solid was visible in the bottom of the tube. A 125-μL aliquot of the solution was then diluted to 25 mL. The sample was analyzed by UV/Vis spectroscopy at 436 nm, and the absorbance was compared to a standard curve compiled from 4 standards of known concentration. The concentration of the original supernatant was calculated to be 2.85 mg/mL and the absorptivity was 36.94 AU*mL/cm*mg. Slight error may have been introduced by the small size of the original aliquot.
as §1, with “Next, 30.80” for “30.13”, “9” for “3”, “411” for “436”, “29.27” for “2.85”, “2.90” for “36.94”

Sequence of human serum albumin (HSA) (P02768 25-609): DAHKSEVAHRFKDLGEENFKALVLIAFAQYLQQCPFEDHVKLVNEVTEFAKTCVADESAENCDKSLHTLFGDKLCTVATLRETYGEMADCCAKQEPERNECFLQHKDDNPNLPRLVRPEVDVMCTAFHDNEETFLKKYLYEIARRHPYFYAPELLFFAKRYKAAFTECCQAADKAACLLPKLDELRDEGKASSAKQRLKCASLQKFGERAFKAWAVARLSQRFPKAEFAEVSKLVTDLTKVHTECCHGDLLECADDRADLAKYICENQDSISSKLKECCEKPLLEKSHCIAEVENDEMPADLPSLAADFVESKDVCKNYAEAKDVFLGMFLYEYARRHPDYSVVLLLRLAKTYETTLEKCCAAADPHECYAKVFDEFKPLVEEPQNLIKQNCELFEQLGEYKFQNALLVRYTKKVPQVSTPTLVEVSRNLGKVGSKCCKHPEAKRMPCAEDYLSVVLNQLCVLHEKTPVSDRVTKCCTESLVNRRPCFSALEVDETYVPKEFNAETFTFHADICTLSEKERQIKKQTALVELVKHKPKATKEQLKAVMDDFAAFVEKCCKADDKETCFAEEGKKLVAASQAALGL

solubility in water [2]	SMILES	binding to human serum albumin [1]
–	CC1=C(/C=C/C(C)=C/C=C/C(C)=C/C=C/C=C(C)/C=C/C=C(C)/C=C/C2=C(C)C(=O)C(OC(=O)CCC(=O)O)CC2(C)C)C(C)(C)CC(OC(=O)CCC(=O)O)C1=O [meso-(3R,3S)-disodium disuccinate astaxanthin derivative]	bound immediately and preferentially to human serum albumin
insoluble in water	CC1=C(/C=C/C(C)=C/C=C/C(C)=C/C=C/C=C(C)/C=C/C=C(C)/C=C/C2=C(C)C(=O)[C@@H](O)CC2(C)C)C(C)(C)C[C@H](O)C1=O [astaxanthin, reference compound]	–
